For 23 molecules, IC50 results are on record in patent publication US20200069691A1, “HETEROCYCLIC COMPOUNDS AS HIV PROTEASE INHIBITORS” (Merck Sharp & Dohme Corp., priority 2016, published 2020).

The target in the assay is T1, wild-type HIV-1 protease (Human immunodeficiency virus type 1 group M subtype B, UniProt P04585).
T1 construct: Escherichia coli expressed wild-type HIV-1 protease protein
In words: Assay for Inhibition of Microbial Expressed HIV Protease (peptide substrate cleavage, LC-MS/MS readout). The note with it: E. coli expressed wild-type HIV-1 protease, mean of at least two independent experiments, read-out: HIV Pr Enzyme HIV1 PR IC50. In kind it is biochemical. The essentials:
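Cleavage of Val-Ser-Gln-Asn-(β-naphthyl)Ala-Pro-Ile-Val (400 μM) by recombinant HIV-1 protease ([…]) ran 1 h at 30 °C after a 30 min room-temperature inhibitor preincubation in 50 mM sodium acetate pH 5.5. Product peak areas by LC-MS/MS gave inhibition; values average at least two independent runs.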
For `CC(C)CC[C@]1(c2ccc(F)cc2)NC(=N)N(C(CCCc2ccccc2)c2ccc(C(F)(F)F)c(C(=O)N3CCn4c(nnc4C(F)(F)F)C3)c2)C1=O` (stereo partly drawn) [Compound 56, (5R)-5-(4-fluorophenyl)-2-imino-5-(3-methylbutyl)-3-{4-phenyl-1-[4-(trifluoromethyl)-3-{[3-(trifluoromethyl)-5,6-dihydro[1,2,4]-triazolo[4,3-a]pyrazin-7(8H)-yl]carbonyl}-phenyl]butyl}imidazolidin-4-one], the IC50 was 6.19 nM.
Under `N#Cc1cccc(-c2cccc(C3(c4ccc(F)cc4)NC(=N)N(Cc4cccc(C(=O)N5Cc6ccccc6C5)c4)C3=O)c2)c1` (centres unmarked) [Compound 292, 3′-{1-[3-(1,3-dihydro-2H-isoindol-2-ylcarbonyl)benzyl]-4-(4-fluorophenyl)-2-imino-5-oxoimidazolidin-4-yl}biphenyl-3-carbonitrile] stands 39 nM.
Under `CNc1ncc2c(n1)CN(C(=O)c1cc(CN3C(=N)N[C@](CCCC(F)(F)F)(c4ccc(F)cc4)C3=O)ccc1C(F)(F)F)C2` [Compound 68, (5R)-5-(4-fluorophenyl)-2-imino-3-[3-{[2-(methylamino)-5,7-dihydro-6H-pyrrolo[3,4-d]pyrimidin-6-yl]carbonyl}-4-(trifluoromethyl)-benzyl]-5-(4,4,4-trifluorobutyl)-imidazolidin-4-one] stands 8.3 nM; under `COc1ccc(CN2C(=N)NC(c3ccccc3)(c3ccccc3)C2=O)cc1C(=O)N1Cc2ccccc2C1` [Compound 371, 3-[3-(1,3-dihydro-2H-isoindol-2-ylcarbonyl)-4-methoxybenzyl]-2-imino-5,5-diphenylimidazolidin-4-one], 29.5 nM; under `N=C1N[C@](CCCC(F)(F)F)(c2ccc(F)cc2)C(=O)N1Cc1ccc(C(F)(F)F)c(C(=O)N2Cc3cnc(-c4ccc5cnccc5c4)nc3C2)c1` [Compound 55, (5R)-5-(4-fluorophenyl)-2-imino-3-{3-[(2-isoquinolin-6-yl-5,7-dihydro-6H-pyrrolo[3,4-d]pyrimidin-6-yl)carbonyl]-4-(trifluoromethyl)-benzyl}-5-(4,4,4-trifluorobutyl)-imidazolidin-4-one], 5.99 nM.
Under `CC(C)CC(c1ccc(C(F)(F)F)c(C(=O)N2CCn3c(nnc3C(F)(F)F)C2)c1)N1C(=N)N[C@](C[C@@H]2CCOC2)(c2ccc(F)cc2)C1=O` (stereo partly drawn) [Compound 42, (5R)-5-(4-fluorophenyl)-2-imino-3-{3-methyl-1-[4-(trifluoromethyl)-3-{[3-(trifluoromethyl)-5,6-dihydro-[1,2,4]triazolo[4,3-a]pyrazin-7(8H)-yl]carbonyl}phenyl]butyl}-5-[(3R)-tetrahydrofuran-3-ylmethyl]-imidazolidin-4-one] stands 4.26 nM; under `COCCn1cc(-c2ncc3c(n2)CN(C(=O)c2cc(CN4C(=N)N[C@](CCCC(F)(F)F)(c5ccc(F)cc5)C4=O)ccc2C(F)(F)F)C3)cn1` [Compound 20, (5R)-5-(4-fluorophenyl)-2-imino-3-[3-({2-[1-(2-methoxyethyl)-1H-pyrazol-4-yl]-5,7-dihydro-6H-pyrrolo[3,4-d]pyrimidin-6-yl}carbonyl)-4-(trifluoromethyl)benzyl]-5-(4,4,4-trifluorobutyl)imidazolidin-4-one], 2.3 nM.
Regarding `N=C1NC(c2ccc(F)cc2)(c2ccc(F)cc2)C(=O)N1Cc1ccc(Cl)c(C(=O)N2Cc3ccc(F)cc3C2)c1` [Compound 377, 3-{4-chloro-3-[(5-fluoro-1,3-dihydro-2H-isoindol-2-yl)carbonyl]benzyl}-5,5-bis(4-fluorophenyl)-2-iminoimidazolidin-4-one], the half-maximal inhibitory concentration (IC50) stood at 10 nM.
On to `N=C1N[C@](CCCC(F)(F)F)(c2ccc(F)cc2)C(=O)N1Cc1ccc(C(F)(F)F)c(C(=O)N2Cc3cnc(-c4cnn(-c5ccccc5)c4)nc3C2)c1` [Compound 72, (5R)-5-(4-fluorophenyl)-2-imino-3-[3-{[2-(1-phenyl-1H-pyrazol-4-yl)-5,7-dihydro-6H-pyrrolo[3,4-d]pyrimidin-6-yl]carbonyl}-4-(trifluoromethyl)benzyl]-5-(4,4,4-trifluorobutyl)imidazolidin-4-one], for which the half-maximal inhibitory concentration (IC50) amounted to 9.2 nM.
Take `COC(=O)Nc1ncc2c(n1)CN(C(=O)c1cc([C@@H](C)N3C(=N)N[C@](CCC(C)C)(c4ccccc4)C3=O)ccc1C(F)(F)F)C2` [Compound 135, methyl (6-{[5-{(1R)-1-[(4R)-2-imino-4-(3-methylbutyl)-5-oxo-4-phenylimidazolidin-1-yl]ethyl}-2-(trifluoromethyl)phenyl]carbonyl}-6,7-dihydro-5H-pyrrolo[3,4-d]pyrimidin-2-yl)carbamate]: the IC50 is 1.28 nM.
The same measure for `N=C1NC(c2ccc(F)cc2)(c2ccc(F)cc2)C(=O)N1Cc1cccc(C(=O)N2Cc3ccc(F)cc3C2)c1` [Compound 232, 3-{3-[(5-fluoro-1,3-dihydro-2H-isoindol-2-yl)carbonyl]benzyl}-5,5-bis(4-fluorophenyl)-2-iminoimidazolidin-4-one]: 13.5 nM; for `N=C1NC(c2ccc(F)cc2)(c2ccc(F)cc2)C(=O)N1Cc1cccc(C(=O)N2CCC(n3c(=O)oc4ccccc43)CC2)c1` [Compound 319, 3-{1-[(3-{[4,4-bis(4-fluorophenyl)-2-imino-5-oxoimidazolidin-1-yl]methyl}phenyl)carbonyl]piperidin-4-yl}-1,3-benzoxazol-2(3H)-one]: 56.2 nM.
Regarding `N=C1NC(C[C@@H]2CCOC2)(c2ccccc2)C(=O)N1Cc1ccc(C(F)(F)F)c(C(=O)N2CCn3c(nnc3C(F)(F)F)C2)c1` (stereo partly drawn) [Compound 105, 2-imino-5-phenyl-5-[(3R)-tetrahydrofuran-3-ylmethyl]-3-[4-(trifluoromethyl)-3-{[3-(trifluoro-methyl)-5,6-dihydro[1,2,4]triazolo-[4,3-a]pyrazin-7(8H)-yl]carbonyl}-benzyl]limidazolidin-4-one], the IC50 was determined as 24.7 nM.
As to `N=C1NC(c2ccccc2)(c2ccccc2)C(=O)N1Cc1ccc(Cl)c(C(=O)N2Cc3cncnc3C2)c1` [Compound 374, 3-[4-chloro-3-(5,7-dihydro-6H-pyrrolo[3,4-d]pyrimidin-6-ylcarbonyl)benzyl]-2-imino-5,5-diphenylimidazolidin-4-one], the 50% inhibitory concentration (IC50) was 7.02 nM.
Under `COC(=O)Nc1ncc2c(n1)CN(C(=O)c1cccc(CN3C(=N)N[C@](CCC(C)C)(c4ccccc4)C3=O)c1)C2` [Compound 183, methyl {6-[(3-{[(4R)-2-imino-4-(3-methylbutyl)-5-oxo-4-phenylimidazolidin-1-yl]methyl}phenyl)carbonyl]-6,7-dihydro-5H-pyrrolo[3,4-d]pyrimidin-2-yl}carbamate] stands 2.26 nM; under `CC(C)CCC(c1ccc(C(F)(F)F)c(C(=O)N2CCn3c(nnc3C(F)(F)F)C2)c1)N1C(=N)N[C@](CCC(C)C)(c2ccccc2)C1=O` (stereo partly drawn) [Compound 23, (5R)-2-imino-5-(3-methylbutyl)-3-{4-methyl-1-[4-(trifluoromethyl)-3-{[3-(trifluoromethyl)-5,6-dihydro[1,2,4]triazolo[4,3-a]pyrazin-7(8H)-yl]carbonyl}phenyl]pentyl}-5-phenylimidazolidin-4-one], 2.38 nM; under `CS(=O)(=O)c1cccc(-c2ncc3c(n2)CN(C(=O)c2cc(CN4C(=N)N[C@](CCCC(F)(F)F)(c5ccc(F)cc5)C4=O)ccc2C(F)(F)F)C3)c1` [Compound 24, (5R)-5-(4-fluorophenyl)-2-imino-3-[3-({2-[3-(methylsulfonyl)phenyl]-5,7-dihydro-6H-pyrrolo[3,4-d]pyrimidin-6-yl}carbonyl)-4-(trifluoromethyl)benzyl]-5-(4,4,4-trifluorobutyl)imidazolidin-4-one], 2.41 nM.
For `CN1CCN(C(=O)c2cc(CN3C(=N)NC(c4ccccc4)(c4ccccc4)C3=O)ccc2C(F)(F)F)CC1=O` [Compound 153, 4-({5-[(2-imino-5-oxo-4,4-diphenylimidazolidin-1-yl)methyl]-2-(trifluoromethyl)phenyl}-carbonyl)-1-methylpiperazin-2-one], the half-inhibitory concentration (IC50) is 10.1 nM.
Under `N=C1NC(c2ccccc2)(c2ccccc2)C(=O)N1Cc1ccc(Cl)c(C(=O)N2CCC(n3c(=O)[nH]c4ccccc43)CC2)c1` [Compound 383, 1-[1-({2-chloro-5-[(2-imino-5-oxo-4,4-diphenylimidazolidin-1-yl)methyl]phenyl}carbonyl)piperidin-4-yl]-1,3-dihydro-2H-benzimidazol-2-one] stands 14.7 nM; under `CN1CCN(C(=O)c2cc(F)cc(CN3C(=N)NC(c4ccccc4)(c4ccccc4)C3=O)c2)CC1=O` [Compound 353, 4-({3-fluoro-5-[(2-imino-5-oxo-4,4-diphenylimidazolidin-1-yl)methyl]phenyl}carbonyl)-1-methylpiperazin-2-one], 88.8 nM; under `CC(C)C[C@]1(c2ccccc2)NC(=N)N(Cc2cnc(C(F)(F)F)c(C(=O)N3Cc4nccnc4C3)c2)C1=O` [Compound 390, (5R)-3-{[5-(5,7-dihydro-6H-pyrrolo[3,4-b]pyrazin-6-ylcarbonyl)-6-(trifluoromethyl)pyridin-3-yl]methyl}-2-imino-5-(2-methylpropyl)-5-phenylimidazolidin-4-one], 8.45 nM.
As to `N=C1N[C@](CCCC(F)(F)F)(c2ccc(F)cc2)C(=O)N1Cc1ccc(C(F)(F)F)c(C(=O)N2Cc3cnc(-c4cccc(-c5ccn[nH]5)c4)nc3C2)c1` [Compound 40, (5R)-5-(4-fluorophenyl)-2-imino-3-[3-({2-[3-(1H-pyrazol-5-yl)phenyl]-5,7-dihydro-6H-pyrrolo[3,4-d]pyrimidin-6-yl}carbonyl)-4-(trifluoromethyl)benzyl]-5-(4,4,4-trifluorobutyl)imidazolidin-4-one], the IC50 is 4.13 nM.
As to `C[C@H](c1cccc(C(=O)N2Cc3nccnc3C2)c1)N1C(=N)NC(c2ccccc2)(c2ccccc2)C1=O` [Compound 185, 3-{(1R)-1-[3-(5,7-dihydro-6H-pyrrolo[3,4-b]pyrazin-6-ylcarbonyl)phenyl]ethyl}-2-imino-5,5-diphenylimidazolidin-4-one], the IC50 was 40.5 nM.
